Like-named read-outs stand apart in the source and are kept apart here.

One compound from publication PMC7615677 (Science translational medicine, 2023) can be followed below.

The nature of data set [1]: Binding to liver microsomes. The data set is classed as in vitro ADME. Conditions: pH 7.4; human liver microsomes 1 mg/mL; read-out: Microsome fraction unbound. Here is the method:
Dialysis was conducted for 6 h and parallel non-dialyzed samples were included to confirm the absence of compound degradation. Binding to hepatocytes (at a cell density of 1 x 10^6 cells/mL) was calculated from the measured microsomal binding (at 1 mg/mL) as described previously ([26]). The fraction unbound (fu) was determined from the ratio of the dialysate to the donor concentration, assuming that the system was at steady state at the end of the dialysis period. For plasma, the data were corrected for the dilution factor to give a binding value for neat plasma according to previously published methods ([27]).

Data set [2] concerns remaining CYP isoforms other than CYP1A2 and CYP3A4/5 (CYP2B6, CYP2C8, CYP2C9, CYP2C19, CYP2D6). The data set is described as follows: Cytochrome P450 inhibition, human liver microsomes. It is filed as in vitro ADME. Conditions: remaining isoforms (other than CYP1A2 and CYP3A4/5). Here is the method: (§1) Direct CYP inhibition studies were conducted using conditions described previously ([43]) following incubation of isoform-specific substrates with human liver microsomes. The formation of known metabolites mediated by a specific CYP isoform was monitored. CYP isoform-specific pathways (and positive control inhibitors) included CYP1A2: phenacetin O-deethylation (furafylline), CYP2B6: bupropion hydroxylation (PPP), CYP2C8: amodiaquine deethylation (quercetin) CYP2C9: tolbutamide methylhydroxylation (sulfaphenazole), CYP2C19: (S)-mephenytoin 4’-hydroxylation (ticlopidine), CYP2D6: dextromethorphan O-demethylation (quinidine), and CYP3A: midazolam 1’-hydroxylation and testosterone 6β-hydroxylation (ketoconazole). […] The organic solvent content was maintained at less than 1% (v/v). NADPH was added to initiate the reaction which was then quenched by the addition of acetonitrile containing internal standard at specified times. Concentrations of the isoform-specific metabolites were quantified by LC-MS (Waters Xevo TQD triple quadrupole MS coupled to a Waters Acquity UPLC system) relative to calibration standards prepared in pre-quenched microsomal matrix.
A general note: Liver microsomes are a subcellular fraction often used to study metabolism.

Data set [3] in a line: Reaction phenotyping with chemical CYP inhibitors. It is filed as in vitro ADME. Conditions: human liver microsomes. Here is the method: Other aspects of the incubation and analysis were as described above.
For data set [4], the system named is L. donovani axenic amastigotes. In words: Drug sensitivity assay, axenic amastigotes. The data set is classed as cell-based. Conditions: Leishmania donovani. Here is the method:
The clonal L. donovani cell line LdBOB (derived from MHOM/SD/62/1S-CL2D) was grown as promastigotes at 28°C and as axenic amastigotes at 37°C, as described previously ([25]).
To examine the effects of test compounds on growth in 96-well plates, promastigote or axenic amastigote cultures seeded at 5 × 10^4 parasites mL^–1 were incubated in the presence of 2-fold serial dilutions of test compounds for 72 h. Following incubation, 50 μM resazurin was added to each well and fluorescence (excitation of 528 nm and emission of 590 nm) measured after a further 3 h incubation.

For data set [5], the system named is CYP3A4/5. In words: Cytochrome P450 inhibition, human liver microsomes. It is filed as in vitro ADME. Conditions: for IC50: read-out: Direct inhibition IC50; for IC50 at 30 min: read-out: Time-dependent inhibition IC50. How it is done:
as §1
(§2) Time dependent inhibition was assessed using an “IC50 shift” method based on a previous publication ([44]). […] A shift in the IC50 in the presence of NADPH (relative to the absence) was used as an indication of time dependent inhibition. Reference direct and time-dependent inhibitors were included in the assays.

For data set [6], the target named is T1, CYP2D6 (Homo sapiens, UniProt P10635).
T1 construct: incubation of isoform-specific substrates with human liver microsomes; from tissue; host or cells: human liver microsomes
T1 sequence (P10635 whole entry, canonical isoform): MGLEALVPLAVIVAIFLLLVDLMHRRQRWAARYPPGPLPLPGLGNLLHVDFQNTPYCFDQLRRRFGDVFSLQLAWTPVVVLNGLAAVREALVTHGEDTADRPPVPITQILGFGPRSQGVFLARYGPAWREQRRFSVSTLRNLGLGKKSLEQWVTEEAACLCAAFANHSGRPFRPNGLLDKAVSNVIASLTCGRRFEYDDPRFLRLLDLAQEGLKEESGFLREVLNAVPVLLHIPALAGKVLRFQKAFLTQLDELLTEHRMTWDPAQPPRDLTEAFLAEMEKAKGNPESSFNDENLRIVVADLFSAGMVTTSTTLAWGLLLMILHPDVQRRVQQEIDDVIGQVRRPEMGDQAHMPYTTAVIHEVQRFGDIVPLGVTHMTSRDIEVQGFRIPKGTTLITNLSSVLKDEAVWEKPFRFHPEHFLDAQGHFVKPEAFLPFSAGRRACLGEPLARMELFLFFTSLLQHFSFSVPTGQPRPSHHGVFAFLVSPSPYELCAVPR
The data set is described as follows: Cytochrome P450 inhibition, human liver microsomes. The data set is classed as in vitro ADME. Here is the method:
as §1, §2

For data set [7], the target named is T2, CYP2C8 (Homo sapiens, UniProt P10632).
T2 construct: incubation of isoform-specific substrates with human liver microsomes; from tissue; host or cells: human liver microsomes
T2 sequence (P10632 1-490): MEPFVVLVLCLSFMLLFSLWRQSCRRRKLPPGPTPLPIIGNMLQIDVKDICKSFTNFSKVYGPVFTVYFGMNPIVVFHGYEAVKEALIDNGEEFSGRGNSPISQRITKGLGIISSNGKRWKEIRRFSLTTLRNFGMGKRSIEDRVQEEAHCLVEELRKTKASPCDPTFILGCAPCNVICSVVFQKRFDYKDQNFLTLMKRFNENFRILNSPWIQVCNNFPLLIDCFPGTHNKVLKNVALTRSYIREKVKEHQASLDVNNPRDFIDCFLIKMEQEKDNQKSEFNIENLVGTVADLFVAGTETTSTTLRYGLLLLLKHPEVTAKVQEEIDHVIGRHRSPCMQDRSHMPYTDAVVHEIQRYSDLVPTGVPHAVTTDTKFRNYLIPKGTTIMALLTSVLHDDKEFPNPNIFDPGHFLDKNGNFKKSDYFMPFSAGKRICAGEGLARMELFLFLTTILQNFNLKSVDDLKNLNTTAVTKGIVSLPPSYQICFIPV
The data set is described as follows: Cytochrome P450 inhibition, human liver microsomes. The data set is classed as in vitro ADME. Here is the method:
as §1, §2

Data set [8] has as its target T3, CYP2C19 (Homo sapiens, UniProt P33261).
T3 construct: incubation of isoform-specific substrates with human liver microsomes; from tissue; host or cells: human liver microsomes
The data set is described as follows: Cytochrome P450 inhibition, human liver microsomes. It is filed as in vitro ADME. Here is the method:
as §1, §2

Data set [9] addresses T4, CYP2B6 (Homo sapiens, UniProt P20813).
T4 construct: incubation of isoform-specific substrates with human liver microsomes; from tissue; host or cells: human liver microsomes
T4 sequence (P20813 1-491): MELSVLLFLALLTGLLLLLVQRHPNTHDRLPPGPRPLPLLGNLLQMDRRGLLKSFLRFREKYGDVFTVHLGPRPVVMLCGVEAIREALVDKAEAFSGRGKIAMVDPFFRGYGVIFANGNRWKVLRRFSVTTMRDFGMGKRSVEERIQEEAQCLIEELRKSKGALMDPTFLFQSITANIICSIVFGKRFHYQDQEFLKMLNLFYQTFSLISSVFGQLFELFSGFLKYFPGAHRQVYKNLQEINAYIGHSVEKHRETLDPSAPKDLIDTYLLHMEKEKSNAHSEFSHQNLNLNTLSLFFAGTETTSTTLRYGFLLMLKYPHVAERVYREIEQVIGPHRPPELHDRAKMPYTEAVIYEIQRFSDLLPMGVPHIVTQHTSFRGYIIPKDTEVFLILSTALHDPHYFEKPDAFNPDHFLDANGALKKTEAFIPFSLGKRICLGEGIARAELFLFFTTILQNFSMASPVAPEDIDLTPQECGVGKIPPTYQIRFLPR
The data set is described as follows: Cytochrome P450 inhibition, human liver microsomes. The data set is classed as in vitro ADME. Here is the method:
as §1, §2

The target of data set [10] is T5, CYP2C9 (Homo sapiens, UniProt P11712).
T5 construct: incubation of isoform-specific substrates with human liver microsomes; from tissue; host or cells: human liver microsomes
T5 sequence (P11712 whole entry, canonical isoform): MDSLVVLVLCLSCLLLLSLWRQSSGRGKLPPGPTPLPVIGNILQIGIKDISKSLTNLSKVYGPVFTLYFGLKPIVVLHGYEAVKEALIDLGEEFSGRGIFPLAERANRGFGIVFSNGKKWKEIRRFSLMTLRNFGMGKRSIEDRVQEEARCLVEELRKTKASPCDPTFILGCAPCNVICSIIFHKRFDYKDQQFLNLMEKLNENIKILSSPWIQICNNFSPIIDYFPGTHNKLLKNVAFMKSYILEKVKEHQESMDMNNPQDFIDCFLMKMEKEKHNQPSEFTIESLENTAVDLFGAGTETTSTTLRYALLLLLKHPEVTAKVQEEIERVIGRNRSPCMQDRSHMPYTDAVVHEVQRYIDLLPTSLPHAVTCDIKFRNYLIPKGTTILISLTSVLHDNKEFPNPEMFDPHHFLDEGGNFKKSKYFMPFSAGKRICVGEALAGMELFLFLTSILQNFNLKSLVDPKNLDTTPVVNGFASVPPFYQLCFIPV
The data set is described as follows: Cytochrome P450 inhibition, human liver microsomes. The data set is classed as in vitro ADME.

Where [11] appears, read: with NADPH preincubation, read-out: Time-dependent inhibition IC50.
Where [12] appears, read: without NADPH preincubation, read-out: Time-dependent inhibition IC50.

T3 sequence (P33261 whole entry, canonical isoform): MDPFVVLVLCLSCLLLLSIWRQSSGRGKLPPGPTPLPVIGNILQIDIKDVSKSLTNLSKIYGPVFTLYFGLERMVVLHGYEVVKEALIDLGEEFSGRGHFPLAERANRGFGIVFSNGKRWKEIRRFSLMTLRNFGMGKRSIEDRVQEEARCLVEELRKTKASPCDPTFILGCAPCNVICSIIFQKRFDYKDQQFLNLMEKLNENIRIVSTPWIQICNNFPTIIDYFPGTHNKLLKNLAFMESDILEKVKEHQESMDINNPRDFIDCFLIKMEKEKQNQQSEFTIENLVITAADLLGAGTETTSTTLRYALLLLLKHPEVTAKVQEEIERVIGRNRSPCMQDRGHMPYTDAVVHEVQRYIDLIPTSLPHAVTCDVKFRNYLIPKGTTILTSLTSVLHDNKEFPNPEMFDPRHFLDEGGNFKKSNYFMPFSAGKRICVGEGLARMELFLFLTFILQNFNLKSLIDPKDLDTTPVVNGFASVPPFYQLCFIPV

As a reminder, the fraction unbound is free concentration divided by total concentration. In general, IC50 refers to the concentration at which inhibition is half-maximal. As a reminder, the EC50 is the concentration that produces a half-maximal response. Low values mean a more potent agent, high ones a less potent agent. Turning to `Cc1[nH]c2nc(N)nc(C)c2c1-c1ccc(C#N)c2c1OCO2` [DNDI-6174], the fraction unbound at 6 h, 0.5 µM in data set [1] stood at 0.51. Also, the IC50 was over 15 µM in data set [2]; over 20 µM in data set [5] (probe midazolam (1'-hydroxylation), CYP3A4/5, midazolam); 12.3 µM in [5] (probe testosterone (6β-hydroxylation), CYP3A4/5, testosterone); 19 µM in data set [6] (CYP2D6, read-out: Direct inhibition IC50); 0.49 µM in [6] (setting [11]); 9.8 µM in data set [6] (setting [12]). Besides, the half-inhibitory concentration (IC50) in data set [7] (CYP2C8, read-out: Direct inhibition IC50) was over 20 µM; in [7] (setting [11]), 3.2 µM; in data set [7] (setting [12]), over 20 µM; in [8] (CYP2C19, read-out: Direct inhibition IC50) it was 19 µM; in data set [8] (setting [11]), 7.4 µM; in data set [8] (setting [12]), 13.6 µM. Also, the IC50 in data set [9] (CYP2B6, read-out: Direct inhibition IC50) is over 20 µM; in data set [9] (setting [11]), over 20 µM; in data set [9] (setting [12]), over 20 µM; in data set [10] (CYP2C9, read-out: Direct inhibition IC50) it was 14.9 µM; in data set [10] (setting [12]), 13.8 µM. The “CLint in absence or presence of CYP isoform inhibitors, in words” value in data set [3] is reported as “no significant difference in the CLint values in the absence or presence of inhibitors”. In [4], this compound showed a half-maximal effective concentration (EC50) of 0.075 ± 0.002 µM. The IC50 at 30 min in data set [5] (probe midazolam (1'-hydroxylation), midazolam, with NADPH preincubation) is 1.9 µM; in data set [5] (probe midazolam (1'-hydroxylation), midazolam, without NADPH preincubation) it was over 20 µM; in data set [5] (probe testosterone (6β-hydroxylation), testosterone, with NADPH preincubation), 0.71 µM; in data set [5] (probe testosterone (6β-hydroxylation), testosterone, without NADPH preincubation), 8 µM.
